Data reported in patent US11986482B2, “Method of promoting antitumor or anti-cancer immunity” (City University of Hong Kong, priority 2021, dated 2024).
“Also recorded” adds a separate entry of the source.

Columns and labels:
HeLa cells = assay: Fluorescent transferrin conjugates recycling assay; format: cell-based; settings: compound 3 h, Transferrin-488 25 μg/ml, flow cytometry
Procedure: A DQ-BSA endocytic trafficking assay screens these compounds. DQ-BSA, a self-quenching dye, is internalized into the cytoplasm by endocytosis, after which it is delivered to the lysosomes for degradation to relieve fluorescence-quenching, resulting in bright fluorescence in cells. HeLa cells are plated on 6-well plates and treated with the indicated compound for 3 h. Then, cells are replaced with Trafficking media containing 10 μg/ml DQ-green BSA with or without drugs (1 μM) and incubated at 37° C. in a 5% CO2 humidified cell culture chamber another 6 h followed by Flow cytometry analysis. […] Inventors also test whether these hit compounds can inhibit the recycling endosomal pathway by performing the fluorescent transferrin conjugates recycling assay. Iron-bound transferrin interacts with its receptor (TfR) to trigger the internalization of the iron-transferrin-TfR complex via clathrin-mediated endocytosis. Fe^3+ irons are subsequently dissociated from their ligands in the acidic endosome environment and released into the cytoplasm. […] Thus, the fluorescence intensity of fluorescent transferrin conjugates-labeled cells can reflect the recycling endocytic trafficking process. […] Cells are collected for flow cytometry analysis, and the mean fluorescence intensity of transferrin is quantified.

EGFR = EGFR degradation assay (EGF-488); format: cell-based; settings: HeLa cells, 6J1 1 μM 3 h, EGF-488 2 μg/ml, 2 h of EGF treatment
Procedure: Furthermore, HeLa cells are pretreated with DMSO or 6J1 (1 μM) for 3 h. Then, cells are incubated with EGF-488 (2 μg/ml) on ice for 1 h followed by incubating in the complete medium at 37° C. in a CO2 incubator. Cells are fixed at the indicated times and imaged.

PD-L1 [1] = assay: Plasma membrane PD-L1 level in HeLa cells (flow cytometry, confocal imaging); format: cell-based; settings: 1 μM, 24 h
Procedure: Next, inventors assess if 6J1 can compromise PD-L1 trafficking. PDL1-GFP stable expressing HeLa cells are treated with or without 6J1 (1 μM) for 24 h. Cells are fixed and stained with Rab5 or EEA1. Their quantifications of the colocalization are shown in FIGS. 4d and 4e, respectively. […] Inventors thus further quantify cell membrane PD-L1 levels in live cells treated with or without 6J1 by flow cytometry or confocal imaging.
Moreover, ATG5- or LC3-knockout HeLa cells are treated with or without 6J1 (1 μM) for 24 h. The supernatant is collected, and the concentration of the extracellular vesicle is determined using a Nanosight nanoparticle analyzer. The exosomes are also collected and subjected to western blot analysis of the EVs marker and PD-L1 in FIG. 7a. The live cells are also labeled with an anti-PD-L1 antibody in FIG. 7b and subjected to flow cytometry analysis in FIG. 7c. […] In addition, inventors assess whether other autophagy-related genes, e.g., ATG4B, ATG7, Beclin1, and Vps34 are involved in 6J1-mediated exosomal PD-L1 secretion. ATG4B-, ATG7-, Beclin1-, or VPS34-knockout HeLa cells are treated with or without 6J1 (1 μM) for 24 h. The supernatant is collected, and the concentration of extracellular vesicle is determined using a Nanosight nanoparticle analyzer. The exosomes are also collected and subjected to western blot analysis of the EVs marker and PD-L1 in FIG. 7d. The live cells are also labeled with an anti-PD-L1 antibody and subjected to flow cytometry analysis in FIG. 7e.

PD-L1 [2] = assay: Western blot of PD-L1 in exosomes of 4T1 cells; format: cell-based, mouse; settings: 1 μM
Procedure: The current PD-L1 and PD1 therapies apply PD-L1 or PD1 monoclonal antibodies to block the PD-L1/PD1 signaling, which results in cytotoxic T cells recognizing and killing the tumor cells. […] First, flow cytometry-based quantification of plasma membrane levels of PD-L1 in 4T1 cells treated with or without 6J1 (1 μM) for 24 h. 4T1 cells are treated with or without 6J1 (1 μM) for 24 h. The supernatant is collected, and the concentration of extracellular vesicle is determined using a Nanosight nanoparticle analyzer in FIG. 8b. The exosomes are also collected and subjected to western blot analysis of the EVs marker and PD-L1 in FIG. 8c.
Therefore, it is possible that the increased exosomal PD-L1 secretion induced by 6J1 may still suppress the tumor-infiltrating T cell cytotoxicity in vivo, even though 6J1 reduces the cell surface expression level of PD-L1 on the tumor cells. To evaluate the role of exosomal PD-L1 in the tumor microenvironment and tumor progression in mice, inventors knock out Rab27a in 4T1 cells to inhibit the secretion of exosomes. 4T1-shNC or 4T1-shRab27A cells are treated with or without 6J1 (1 μM). The supernatant is collected, and the concentration of extracellular vesicle is determined using a Nanosight nanoparticle analyzer. […] Inventors analyze the plasma membrane levels of PD-L1 in 4T1-shNC or 4T1-shRab27A cells treated with or without 6J1 (1 μM). […]

4T1 cells = assay: Chemokine level in supernatant of 4T1 cells; format: cell-based, mouse; settings: in vitro, 1 μM
Raw246.7 cells = assay: Chemokine level in supernatant of Raw246.7 cells; format: cell-based; settings: in vitro, 1 μM
[3] = test system: Rab27a-knockout 4T1 cells; assay: 4T1-shRab27A (Rab27a-knockout) orthotopic tumors in Balb/c mice; format: in vivo, mouse
Procedure: Therefore, it is possible that the increased exosomal PD-L1 secretion induced by 6J1 may still suppress the tumor-infiltrating T cell cytotoxicity in vivo, even though 6J1 reduces the cell surface expression level of PD-L1 on the tumor cells. To evaluate the role of exosomal PD-L1 in the tumor microenvironment and tumor progression in mice, inventors knock out Rab27a in 4T1 cells to inhibit the secretion of exosomes. 4T1-shNC or 4T1-shRab27A cells are treated with or without 6J1 (1 μM). The supernatant is collected, and the concentration of extracellular vesicle is determined using a Nanosight nanoparticle analyzer. […] Inventors analyze the plasma membrane levels of PD-L1 in 4T1-shNC or 4T1-shRab27A cells treated with or without 6J1 (1 μM). […] Next, control or Rab27a-knockout 4T1 cells are orthotopically transplanted into syngeneic fat pads of female Balb/c. The mice are randomly divided (n=5 per group) and treated with either buffer or 6J1 (30 mg/kg, daily) via oral gavage. […] Inventors also perform the immunostaining of CD8 and Granzyme B in the tumor sections. […] Since enhanced antitumor immunity leads to increased apoptosis in tumors, inventors assess the levels of cleaved caspase3 (CCA3), one of the markers of apoptosis, in tumor sections as well.

LL/2 cells = assay: LL/2 mouse lung cancer model in C57BL mice; format: in vivo; settings: 30 mg/kg, daily, oral gavage, 4 weeks
Procedure: C57BL mice (n=5) are injected subcutaneously with LL/2 cells. After tumors reach around 5 mm in size, the mice are treated with either buffer (PBS) or 6J1 (30 mg/kg, daily, oral gavage) for 4 weeks. After 4 weeks, primary tumors and lungs are collected for analysis (FIGS. 16a and 16b). Tumor volumes are measured daily (p<0.001) in FIG. 16c.

[4] = Rab27a-knockout 4T1 cells, 6J1 30 mg/kg, daily, oral gavage
[5] = Rab27a-knockout 4T1 cells, 6J1 30 mg/kg, daily, oral gavage, 30 mg/kg

OCCOCCN(c1ccccc1)c1nc(N/N=C/c2cccc(I)c2)nc(N2CCOCC2)n1 [Compound 6J1]
recycling endosomal trafficking of transferrin (mean fluorescence intensity) (HeLa cells): effectively inhibit the recycling endosomal trafficking of transferrin; also recorded: performs best | EGFR degradation (EGFR): blocks the EGFR degradation | 6J1-mediated decrease in the level of PD-L1 at the cell surface (PD-L1 [1]; ATG4B-, ATG7-, Beclin1- or VPS34-knockout HeLa cells): does not affect | 6J1-induced decrease in the level of PD-L1 at the cell surface (PD-L1 [1]; ATG5- or LC3B-knockout HeLa cells): Neither ATG5 nor LC3B knockout impairs | expression of PD-L1 on the surface of cells (PD-L1 [1]; HeLa cells): significantly reduces the expression of PD-L1 on the surface of cells | 6J1-induced exosomal PD-L1 levels (PD-L1 [2]; 4T1-shRab27A cells): significantly inhibits | secretion of PD-L1 in exosomes (PD-L1 [2]; 4T1 cells, 24 h): induces the secretion of PD-L1 in exosomes | secretion of various chemokines from 4T1 cells (4T1 cells): markedly induces the secretion of various chemokines | secretion of various chemokines from Raw246.7 cells (Raw246.7 cells): markedly induces the secretion of various chemokines | activated tumor-infiltrating CD8+ T cell population and expression of IFN-γ vs other groups [3, 4]: significantly increased | tumor growth and tumor burden vs other groups [3, 4]: significantly smaller | cleaved caspase3 (CCA3) apoptotic signals in tumors vs other groups [3, 5]: Stronger clustered apoptotic signals | infiltrated CD8+ T cells in tumor sections (immunostaining) vs other groups [3, 5]: More infiltrated CD8+ T cells are detected; also recorded: more infiltrated CD8^+ T cells are detected | overall survival of mice bearing orthotopic 4T1 tumors vs other groups ([3]; combination of Rab27a knockout and 6J1 treatment): substantially prolongs the overall survival | tumor growth of mouse lung cancer (LL/2 cells): significantly inhibits the tumor growth of mouse lung cancer
